From US20220017516A1, “LOX INHIBITORS” (THE INSTITUTE OF CANCER RESEARCH: ROYAL CANCER HOSPITAL, priority 2018, published 2022)
pIC50: −log10 of the molar value. Read-outs that look alike come from different tables or passages of the source.

Assays:
LOXL2 = molecular target: T1, LOXL2 (Homo sapiens, UniProt Q9Y4K0); test: LOX isoform activity assay (ROS Glo), LOXL2; type: biochemical
T1 construct: purchased R&D Systems/Bio-techne
T1 sequence (Q9Y4K0 26-774): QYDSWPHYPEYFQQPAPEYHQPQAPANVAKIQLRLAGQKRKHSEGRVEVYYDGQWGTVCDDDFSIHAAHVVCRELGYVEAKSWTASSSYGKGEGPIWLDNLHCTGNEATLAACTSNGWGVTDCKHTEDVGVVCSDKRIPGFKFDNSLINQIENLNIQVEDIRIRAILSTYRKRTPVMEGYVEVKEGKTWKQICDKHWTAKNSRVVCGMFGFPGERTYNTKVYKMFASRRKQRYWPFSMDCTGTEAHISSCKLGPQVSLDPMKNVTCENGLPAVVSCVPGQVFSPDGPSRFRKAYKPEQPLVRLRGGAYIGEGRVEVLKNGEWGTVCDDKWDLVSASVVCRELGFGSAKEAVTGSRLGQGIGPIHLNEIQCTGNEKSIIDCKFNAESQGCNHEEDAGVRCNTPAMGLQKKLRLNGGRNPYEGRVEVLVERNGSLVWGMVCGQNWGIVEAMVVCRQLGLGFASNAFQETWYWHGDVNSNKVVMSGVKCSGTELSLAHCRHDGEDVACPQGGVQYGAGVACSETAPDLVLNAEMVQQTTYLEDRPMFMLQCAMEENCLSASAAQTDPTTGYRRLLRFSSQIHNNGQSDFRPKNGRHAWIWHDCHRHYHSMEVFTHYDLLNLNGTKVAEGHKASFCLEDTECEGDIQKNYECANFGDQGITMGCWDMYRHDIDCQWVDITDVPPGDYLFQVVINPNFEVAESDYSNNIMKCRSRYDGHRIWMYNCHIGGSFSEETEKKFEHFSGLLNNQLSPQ
Outline: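 Human LOXL2 in 100 mM CHES pH 9 (1 M urea, 100 mM NaCl, 1 mM MgCl2, 0.5% BSA, 0.05% pluronic F-127) preincubated with compound (0.003–100 μM final) for 20 min, 1 h or 20 h. Cadaverine 19.56 mM and H2O2 25 μM added, 1 h at RT. Luminescence (ROS-Glo luciferin detection) fitted to IC50.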

diamine oxidase (DAO) = molecular target: T2, diamine oxidase (DAO) (Sus scrofa, UniProt Q9TRC7); test: Diamine oxidase catalytic activity assay (ROS Glo); type: biochemical
T2 construct: purchased Sigma
T2 sequence (Q9TRC7 25-755): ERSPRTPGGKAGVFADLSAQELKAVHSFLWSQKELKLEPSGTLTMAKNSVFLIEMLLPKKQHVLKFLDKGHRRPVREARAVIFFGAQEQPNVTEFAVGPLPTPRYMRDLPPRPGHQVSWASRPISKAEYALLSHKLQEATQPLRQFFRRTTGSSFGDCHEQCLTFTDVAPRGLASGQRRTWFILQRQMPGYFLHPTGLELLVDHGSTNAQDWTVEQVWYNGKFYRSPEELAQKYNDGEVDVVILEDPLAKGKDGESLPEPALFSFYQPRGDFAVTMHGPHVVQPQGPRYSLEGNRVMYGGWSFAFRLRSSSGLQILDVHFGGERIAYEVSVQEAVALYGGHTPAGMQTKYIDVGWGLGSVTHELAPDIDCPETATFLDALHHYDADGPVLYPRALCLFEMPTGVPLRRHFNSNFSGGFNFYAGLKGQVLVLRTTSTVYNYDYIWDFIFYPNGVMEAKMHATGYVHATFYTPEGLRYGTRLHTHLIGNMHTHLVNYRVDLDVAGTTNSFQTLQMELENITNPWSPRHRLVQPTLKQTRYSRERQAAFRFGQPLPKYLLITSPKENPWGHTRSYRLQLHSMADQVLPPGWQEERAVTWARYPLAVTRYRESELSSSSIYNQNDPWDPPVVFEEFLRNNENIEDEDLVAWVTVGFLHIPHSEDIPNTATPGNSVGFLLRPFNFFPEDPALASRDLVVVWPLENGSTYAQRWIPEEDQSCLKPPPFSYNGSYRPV
Experimental: The diamine oxidase (DAO) catalytic activity was determined using the Promega ROS Glo assay kit (G8821); DAO was purchased from Sigma and cadaverine dihydrochloride was used as the substrate at a concentration of 97.8 mM. The concentrations of the chemical inhibitors were the same as in the MAO assays. Luminescence was measured with an integration time of 500 ms/well using a SpectaMax M5 plate reader and resulting IC50 values were calculated using GraphPad Prism software.
In another setting, the DAO and MAO assays were performed in 384-well plates (Greiner) and test compound was added using a Labcyte Echo™ Acoustic Handler for the same final concentrations as in the 96-well setting. Luminescence was measured with BMG LABTECH PHERAstar FS plate reader.

[1] = 1 hr incubation with enzyme; read-out: LOXL2 IC50 b) 1 hr
[2] = 20 hr incubation with enzyme; read-out: LOXL2 IC50 c) 20 hr

SMILES	pIC50 (LOXL2; 20 min incubation with enzyme; read-out: LOXL2 IC50 a) 20 min)	pIC50 (LOXL2; [1])	pIC50 (diamine oxidase (DAO))	pIC50 (LOXL2; [2])
CCOc1ccc(N2CC3CN(CCS(=O)(=O)CCN)CC3C2)cc1 (stereo not shown) [Example 4, 2-((2-(5-(4-ethoxyphenyl)hexahydropyrolo [3,4-c]pyrrol-2(1H)-yl)ethyl)sulfonyl)ethan-1-amine]	5.14	–	–	–
CCOC(=O)CCC(C(=O)N1C[C@@H]2C[C@H]1CN2c1ccc(OCC)cc1)S(=O)(=O)CCN (stereo partly drawn) [Example 41, ethyl 4-((2-aminoethyl)sulfonyl)-5-((1S,4S)-5-(4-ethoxyphenyl)-2,5-diazabicyclo[2.2.1]heptan-2-yl)-5-oxopentanoate]	–	5.51	< 4.00	–
CCOc1ccc(N2C[C@@H]3C[C@H]2CN3C(=O)CS(=O)(=O)CCN)cc1 [Example 8, 2-((2-aminoethyl)-sulfonyl)-1-((1S,4S)-5-(4-ethoxyphenyl)-2,5-diazabicyclo-[2.2.1]heptan-2-yl)-ethan-1-one]	–	–	< 4.00	6.82
CCOc1ccc(N2C[C@H]3CN(C(=O)CS(=O)(=O)CCN)C[C@@H]2C(C)(C)C3)cc1 [Example 7, 2-((2-aminoethyl)sulfonyl)-1-((1S,5S)-6-(4-ethoxyphenyl)-9,9-dimethyl-3,6-diazabicyclo[3.2.2]nonan-3-yl)ethan-1-one]	–	–	< 4.00	6.57
NCCS(=O)(=O)CC(=O)N1CCN(c2ncccn2)CC1 [Example 12, 2-((2-Aminoethyl)-sulfonyl)-1-(4-(pyrimidin-2-yl)-piperazin-1-yl)ethan-1-one]	–	6.37	< 4.00	–
CCOc1ccc(N2C[C@H]3CN(c4ccc(S(=O)(=O)CCN)cc4)C[C@@H]2C(C)(C)C3)cc1 [Example 33, 2-((4-((1R,5S)-6-(4-ethoxyphenyl)-9,9-dimethyl-3,6-diazabicyclo [3.2.2]nonan-3-yl)phenyl)sulfonyl)ethan-1-amine]	–	–	–	4.80
Cc1ccc(S(=O)(=O)N2C[C@H]3CN(C(=O)CS(=O)(=O)CCN)C[C@H]3C2)cc1 [Example 11, 2-((2-aminoethyl)-sulfonyl)-1-(cis-5-tosylhexahydro-pyrrolo[3,4-c]pyrrol-2(1H)-yl)ethan-1-one]	–	6.77	< 4.00	–
NCCS(=O)(=O)CC(=O)N1CCN(c2ccccc2)CC1 [Example 13, 2-((2-Aminoethyl)-sulfonyl)-1-(4-phenylpiperazin-1-yl)ethan-1-one]	–	6.40	< 4.00	–
CCOc1ccc(N2C[C@H]3CN(C(=O)NCCS(=O)(=O)CCN)C[C@@H]2C(C)(C)C3)cc1 [Example 38, (1S,5S)—N-(2-((2-aminoethyl)sulfonyl)ethyl)-6-(4-ethoxyphenyl)-9,9-dimethyl-3,6-diazabicyclo[3.2.2]nonane-3-carboxamide]	–	6.24	< 4.00	–
CCOc1ccc(N2C[C@@H]3C[C@H]2CN3CCS(=O)(=O)CCN)cc1 [Example 2, 2-((2-((1S,4S)-5-(4-ethoxyphenyl)-2,5-diazabicyclo[2.2.1]heptan-2-yl)ethyl)sulfonyl)-ethan-1-amine]	–	–	< 4.00	6.40
CCOc1ccc(N2C[C@H]3CN(CCS(=O)(=O)CCN)C[C@@H]2C(C)(C)C3)cc1 [Example 1, 2-((2-((1R,5S)-6-(4-ethoxyphenyl)-9,9-dimethyl-3,6-diazabicyclo[3.2.2]nonan-3-yl)ethyl)sulfonyl)ethan-1-amine]	–	–	< 4.00	5.80
CCOc1ccc(N2C[C@@H]3C[C@H]2CN3C(=O)C2(S(=O)(=O)CCN)CC2)cc1 [Example 42, (1-((2-Aminoethyl)sulfonyl)cyclopropyl)((1S,4S)-5-(4-ethoxyphenyl)-2,5-diazabicyclo[2.2.1]heptan-2-yl)methanone]	–	4.96	< 4.00	–
